Data reported in US10807932B2, “Benzosuberene analogues and related compounds with activity as anticancer agents” (Baylor University, priority 2018, dated 2020).

Assays:
tubulin = test: Colchicine binding assay (inhibition of [3H]colchicine binding to tubulin); conditions: 1.0 μM tubulin, 5.0 μM [3H]colchicine
Method: Colchicine Binding Assay.
Inhibition of [^3H]colchicine binding to tubulin was measured in 0.1 mL reaction mixtures, each containing 1.0 μM tubulin, 5.0 μM [^3H]colchicine (Perkin-Elmer), 5% (v/v) dimethyl sulfoxide, […], and components that stabilize the colchicine binding activity of tubulin (1.0 M monosodium glutamate [adjusted to pH 6.6 with HCl in a 2.0 M stock solution], 0.5 mg/mL bovine serum albumin, 0.1 M glucose-1-phosphate, 1.0 mM MgCl2, and 1.0 mM GTP). […] Reactions were stopped with 2.0 mL of ice-cold water, with the reaction mixtures being placed on ice. Each diluted sample was poured onto a stack of two DEAE-cellulose filters (GE Biomedical), followed by 3 successive 2 mL aliquots of ice-cold water. A reduced vacuum was used to remove excess water from the filters, which were washed three times with 2 mL water and placed into vials containing 5 mL of Biosafe II scintillation cocktail. Samples were counted 18 h later in a Beckman scintillation counter. Samples with inhibitors were compared to samples with no inhibitor, and percent inhibition was determined, correcting all values for the amount of radiolabel bound to the filters in the absence of tubulin.

[1] = system: SK-OV-3 (ovarian) cancer cell line; test: Sulforhodamine B (SRB) growth inhibition assay, SK-OV-3; format: cell-based, human; conditions: 48 h treatment
Text: (§1) Cell Lines and Sulforhodamine B (SRB) Assay.
(§2) The sulforhodamine B (SRB) assay was used to assess growth inhibition of human cancer cells, as previously described. DU-145, SK-OV-3, and NCI-H460 cancer cell lines (obtained from ATCC) were maintained in T75 flasks (Corning) using high glucose DMEM supplemented with 10% fetal bovine serum (Gibco)/1% gentamicin sulfate for a maximum of 15 passages. For these experiments, cells were trypsinized, counted, and plated at 7000-8000 cells/well into 96-well plates (Corning) and incubated for 24 h at 37° C. in a humidified incubator in a 5% CO2 atmosphere. Compounds to be tested were dissolved in DMSO to generate a 10 mg/mL stock solution, and serial dilutions added in media to the plates. Doxorubicin (Sigma-Aldrich) and paclitaxel (Tokyo Chemical) were used as positive controls. After a 48 h treatment, the cells were fixed with trichloroacetic acid (10% final concentration), washed, dried, stained with SRB dye, washed to remove excess dye, and dried. SRB dye was solubilized, and absorbances were measured at wavelength 540 nm and normalized to values at wavelength 630 nm using an automated Biotek plate reader.

[2] = system: NCI-H460 (lung) cancer cell line; test: Sulforhodamine B (SRB) growth inhibition assay, NCI-H460; format: cell-based, human; conditions: 48 h treatment
Text: as §1, §2

[3] = system: DU-145 (prostate) cancer cell line; test: Sulforhodamine B (SRB) growth inhibition assay, DU-145; format: cell-based, human; conditions: 48 h treatment
Text: as §1, §2

[4] = biological target: T1, purified bovine brain tubulin (Bos taurus, UniProt P81947+Q6B856); test: Inhibition of tubulin polymerization (turbidimetric, cell-free); format: biochemical; conditions: for IC50: 10 μM tubulin, extent of polymerization after 20 min at 30° C., read-out: Inhibition of tubulin polymerization IC50 (μM) ± SD; for inhibition of tubulin polymerization (in words): cell-free assay
T1 construct: purified bovine brain tubulin; from tissue; host or cells: bovine brain
T1 sequence (Q6B856 whole entry): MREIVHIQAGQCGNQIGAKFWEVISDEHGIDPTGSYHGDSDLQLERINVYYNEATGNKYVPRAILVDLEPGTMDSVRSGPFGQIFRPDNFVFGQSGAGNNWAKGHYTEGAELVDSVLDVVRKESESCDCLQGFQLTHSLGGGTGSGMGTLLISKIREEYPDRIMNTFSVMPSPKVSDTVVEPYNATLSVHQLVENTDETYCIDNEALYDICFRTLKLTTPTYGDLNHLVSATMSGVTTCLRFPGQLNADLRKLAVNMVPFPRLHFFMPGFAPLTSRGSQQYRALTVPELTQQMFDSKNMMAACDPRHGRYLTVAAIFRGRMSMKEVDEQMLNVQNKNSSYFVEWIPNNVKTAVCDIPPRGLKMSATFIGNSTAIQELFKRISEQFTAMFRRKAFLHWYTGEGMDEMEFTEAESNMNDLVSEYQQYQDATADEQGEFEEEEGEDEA
T1 sequence (P81947 whole entry): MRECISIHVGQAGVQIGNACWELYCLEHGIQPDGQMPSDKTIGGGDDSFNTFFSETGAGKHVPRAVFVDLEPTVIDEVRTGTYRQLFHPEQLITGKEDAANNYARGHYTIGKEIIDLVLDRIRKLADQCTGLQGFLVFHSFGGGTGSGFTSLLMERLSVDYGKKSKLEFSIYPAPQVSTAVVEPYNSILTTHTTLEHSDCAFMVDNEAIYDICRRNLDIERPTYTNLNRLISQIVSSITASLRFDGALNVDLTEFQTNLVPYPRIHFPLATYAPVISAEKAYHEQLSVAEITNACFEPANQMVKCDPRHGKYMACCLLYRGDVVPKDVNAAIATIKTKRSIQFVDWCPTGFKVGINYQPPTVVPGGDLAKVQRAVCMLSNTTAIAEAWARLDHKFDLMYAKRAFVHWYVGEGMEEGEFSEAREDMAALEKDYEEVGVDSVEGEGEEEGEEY
Method: Inhibition of Tubulin Polymerization.
Tubulin polymerization was evaluated in 0.25 mL reaction mixtures (final volume) containing 1 mg/mL (10 μM) purified bovine brain tubulin, 0.8 M monosodium glutamate (pH 6.6), 4% (v/v) dimethyl sulfoxide, 0.4 mM GTP, and different compound concentrations. All components except GTP were preincubated for 15 min at 30° C. in 0.24 mL. The assay mixtures were cooled to 0° C., and 10 μL of 0.01 M GTP was added to each sample. Reaction mixtures were transferred to cuvettes held at 0° C. in Beckman DU-7400 and DU-7500 spectrophotometers equipped with electronic temperature controllers. The temperature was increased to 30° C., over about 30 s, and polymerization was followed turbidimetrically at 350 nm for 20 min.

Row | SMILES | % Inhibition of colchicine binding ± SD (tubulin; compound at 1 μM) | GI50 [1] [µM] | GI50 [2] [µM] | GI50 [3] [µM] | IC50 [4] [µM] | % Inhibition of colchicine binding ± SD (tubulin; compound at 5 μM) | GI50 ([1]; Homo sapiens, SK-OV-3) [µM] | GI50 ([2]; Homo sapiens, NCI-H460) [µM] | GI50 ([3]; Homo sapiens, DU-145) [µM] | inhibition of tubulin polymerization (in words) [4]
1 | COc1ccc(/C=C\c2cc(OC)c(OC)c(OC)c2)cc1O [CA4, combretastatin A-4, reference compound] | 84 ± 3% | 0.00455 | 0.00223 | 0.00327 | – | – | – | – | – | –
2 | COc1ccc2c(c1C)CCCC=C2c1cc(OC)c(OC)c(OC)c1 [Compound 9, 1-methy-2-methoxy-5-(3′, 4′, 5′-trimethoxyphenyl)-benzosuber-5-ene] | – | – | – | – | 1.6 ± 0.2 | 65 ± 0.6 (5 μM) % | 0.33 | 0.422 | 0.644 | –
3 | CCCCc1c(OC)ccc2c1CCCC=C2c1cc(OC)c(OC)c(OC)c1 [Compound 20, 4-Butyl-3-methoxy-9-(30,40,50-trimethoxyphenyl)-6,7-dihydro-5H-benzo[7]annulene] | – | – | – | – | > 20 | – | 11.5 | 16.1 | 12.2 | –
4 | COc1ccc2c(c1O)CCCCC2(O)c1cc(OC)c(OC)c(OC)c1 (stereo not shown) [Compound 23, 2-Methoxy-5-(3,4,5-trimethoxyphenyl)-6,7,8,9-tetrahydro-5H-benzo[7]annulene-1,5-diol] | – | – | – | – | > 20 | – | 0.394 | 0.173 | 0.033 | reduced inhibition of tubulin polymerization
5 | COc1ccc2c(c1O)CCCC(=O)C2(O)c1cc(OC)c(OC)c(OC)c1 (stereo not shown) [Compound 24, 1,5-Dihydroxy-2-methoxy-5-(3,4,5-trimethoxyphenyl)-5,7,8,9-tetrahydro-6H-benzo[7]annulen-6-one] | – | – | – | – | 1.2 ± 0.1 | 72 ± 2 (5 μM) % | 0.0314 | 0.0476 | 0.141 | –
6 | COCCOCCOc1c(OC)ccc2c1CCCC=C2c1cc(OC)c(OC)c(OC)c1 [Compound 28, 3-Methoxy-4-(2-(2-methoxyethoxy)ethoxy)-9-(3,4,5-trimethoxyphenyl)-6,7-dihydro-5H-benzo[7]annulene] | – | – | – | – | > 20 | – | 6.52 | 1.9 | 5.66 | loss of inhibitory activity
7 | COc1cc(C2=CCCCc3c2ccc(OC)c3OCCO)cc(OC)c1OC [Compound 31, 2-((3-Methoxy-9-(3,4,5-trimethoxyphenyl)-6,7-dihydro-5H-benzo[7]annulen-4-yl)oxy)ethan-1-ol] | – | – | – | – | > 20 | – | 3.22 | 0.855 | 3.76 | loss of inhibitory activity
8 | COc1ccc2c(c1O)CCCC(Br)=C2c1cc(OC)c(OC)c(OC)c1 [Compound 33, 8-Bromo-3-methoxy-9-(3,4,5-trimethoxyphenyl)-6,7-dihydro-5H-benzo[7]annulen-4-ol] | – | – | – | – | 0.39 ± 0.06 | 88 ± 1 (5 μM) % | 0.0221 | 0.0353 | 0.0362 | –
9 | COc1ccc2c(c1C)CCCC(Br)=C2c1cc(OC)c(OC)c(OC)c1 [Compound 34, 8-Bromo-3-methoxy-4-methyl-9-(3,4,5-trimethoxyphenyl)-6,7-dihydro-5H-benzo[7]annulene] | 35 ± 5 (1 μM) % | – | – | – | 4.9 ± 0.1 | – | 0.312 | 0.449 | 0.423 | –
10 | COc1ccc2c(c1O)CCCC(O)C2(O)c1cc(OC)c(OC)c(OC)c1 (stereo not shown) [Compound 35, 2-Methoxy-5-(3,4,5-trimethoxyphenyl)-6,7,8,9-tetrahydro-5H-benzo[7]annulene-1,5,6-triol] | – | – | – | – | > 20 | 0 (5 μM) % | 3.03 | 3.86 | 4.04 | reduced inhibition of tubulin polymerization
11 | COc1ccc2c(c1C#N)CCCC=C2c1cc(OC)c(OC)c(OC)c1 [Compound 38, 3-Methoxy-9-(3,4,5-trimethoxyphenyl)-6,7-dihydro-5H-benzo[7]annulene-4-carbonitrile] | – | 0.0648 | – | – | 1.1 ± 0.1 | 62 ± 0.7 (5 μM) % | – | 0.434 | 0.86 | –
12 | COc1ccc2c(c1C#N)CCC=C2c1cc(OC)c(OC)c(OC)c1 [Compound 39, 2-Methoxy-5-(3,4,5-trimethoxyphenyl)-7,8-dihydronaphthalene-1-carbonitrile] | – | 0.0384 | – | – | 0.37 ± 0.08 | 73 ± 0.6 (5 μM) % | – | 0.0605 | – | –
13 | COc1ccc2c(c1C=O)CCCC=C2c1cc(OC)c(OC)c(OC)c1 [Compound 40, 3-Methoxy-9-(3,4,5-trimethoxyphenyl)-6,7-dihydro-5H-benzo[7]annulene-4-carbaldehyde] | – | – | – | – | 3.2 ± 0.08 | 61 ± 3 (5 μM) % | 0.0572 | 0.0847 | 0.0402 | –
14 | CCOC(=O)c1c(OC)ccc2c1CCCC=C2c1cc(OC)c(OC)c(OC)c1 [Compound 47, Ethyl 3-methoxy-9-(3,4,5-trimethoxyphenyl)-6,7-dihydro-5H-benzo[7]annulene-4-carboxylate] | – | – | – | – | 1 ± 0.07 | 47 ± 1 (5 μM) % | 0.299 | 0.353 | 0.631 | –
15 | COc1ccc2c(c1CO)CCCC=C2c1cc(OC)c(OC)c(OC)c1 [Compound 48, (3-Methoxy-9-(3,4,5-trimethoxyphenyl)-6,7-dihydro-5H-benzo[7]annulen-4-yl)methanol] | – | – | – | – | 0.63 ± 0.03 | 76 ± 2 (5 μM) % | 0.0403 | 0.0628 | – | –
16 | COc1cc(C2=CC(O)CCc3c2ccc(OC)c3OC)cc(OC)c1OC (stereo not shown) [Compound 57, 3,4-Dimethoxy-9-(3,4,5-trimethoxyphenyl)-6,7-dihydro-5H-benzo[7]annulen-7-ol] | – | – | – | – | 3.8 ± 0.5 | 28 ± 4 (5 μM) % | 0.263 | 0.432 | 0.439 | reduced inhibition of tubulin polymerization
17 | COc1ccc2c(c1O)CCC(NC(C)=O)C=C2c1cc(OC)c(OC)c(OC)c1 (stereo not shown) [Compound 69] | – | – | – | – | – | 0.4 ± 0.6 (5 μM) % | – | 0.334 | 1.2 | –
18 | COc1cc(C2(O)C=CCCc3c2ccc(OC)c3OC)cc(OC)c1OC (stereo not shown) [Compound 76, 1,2-Dimethoxy-5-(3,4,5-trimethoxyphenyl)-8,9-dihydro-5H-benzo[7]annulen-5-ol] | – | – | – | – | > 20 | 0 (5 μM) % | 27.2 | 70.5 | 26 | lack of tubulin activity
19 | COc1ccc2c(c1OC)CCCC1=C2c2cc(OC)c(OC)c(OC)c2C1=O [Compound 93, 3,4,9,10,11-Pentamethoxy-6,7-dihydrodibenzo[a,h]azulen-8(5H)-one] | – | – | – | – | > 20 | – | 3.35 | 0.65 | 3.26 | –
20 | COc1cccc2c1C(=O)c1c(O)c3c(c(O)c1C2=O)C[C@@](O)(C(=O)CO)C[C@@H]3O[C@H]1C[C@H](N)[C@H](O)[C@H](C)O1 [Doxorubicin, reference compound] | – | – | – | – | – | – | 0.0789 | 0.123 | 0.134 | –
21 | CC(=O)O[C@H]1C(=O)[C@@]2(C)[C@H]([C@H](OC(=O)c3ccccc3)[C@]3(O)C[C@H](OC(=O)[C@H](O)[C@@H](NC(=O)c4ccccc4)c4ccccc4)C(C)=C1C3(C)C)[C@]1(OC(C)=O)CO[C@@H]1C[C@@H]2O [Paclitaxel, paclitaxel, reference compound] | – | – | – | – | – | – | 0.00134 | 0.00176 | 0.00147 | –
